Measured values: patent US8480909B2, “Method for treatment of canals” (priority 2009, dated 2013)
Entries after “also recorded” stand apart in the source; their conditions may differ.

How the values were obtained:
[1] = cited from earlier work
amphibians = conditions: cited from earlier work
fish = conditions: cited from earlier work
mollusks = conditions: cited from earlier work
zooplankton = conditions: cited from earlier work
crustaceans = conditions: cited from earlier work
insects = conditions: cited from earlier work
algae = test: Treatment of agricultural-water canal with air-stream-entrained calcium hypochlorite; visual observation of algae; assay type: in vivo; conditions: per quarter-mile canal section
From the text: The device and method of the present invention were employed to treat a canal, and visual observations of the amount of algae present in the canal before this treatment, and periodically after this treatment, are set forth in Tables 1-3 below. (The visual observations are accurate and realistic evaluations because the visual amount of algae in the canal correlates well to actual biological-debris problems.) This canal is fed from a large water reservoir which has about thirty percent of its surface covered with algae. This canal is therefore continuously being inoculated with algae which enters with the source water. The flow rate of the water when entering the canal is about one hundred eighty cubic feet per second. Due to water usage from the various growers along the canal, this initial water flow rate decreases at points along the canal, and then decreases dramatically over the last mile to about twenty cubic feet per second. This canal is a typical example of one which is in need of treatment to remediate organic debris. Prior to the treatments of this Example 1, this canal was being point treated with acrolein every eight to ten days during the height of the irrigation season to obtain a satisfactory treatment. In this Example 1, the canal was treated three times along substantially its entire length by propelling a calcium hypochlorite-entrained air stream to the water surface and to the sides of the canal from a delivery system suspended off a mobile unit as described above. An operator made visual assessments of the degree of organic debris build-up along the canal and adjusted the concentration of calcium hypochlorite in the air stream accordingly. The pre-treatment and post-treatment conditions of the canal are shown in Tables 1, 2 and 3 below where the visual assessment of organic debris, made at each quarter mile along the length of the canal, are reported at: (a) just before treatment; (b) twelve hours after the treatment; (c) about a week (seven or eight days) after the treatment; and about a week and a half (ten, twelve and ten days, respectively) after treatment. The just before treatment assessment for the second and third treatments set forth in Tables 2 and 3 below are also continued-assessments of the prior treatment (i.e., the T2-b observations in Table 2 are the same as the T1-10d observations in Table 1, and the T3-b observations in Table 3 are the same as the T2-12d observations in Table 2). Further, any relative terms in an observation refer to the prior observation made at the given time; for example, the “slightly larger patches” observation under T1-10d at 0.75 to 1.00 miles in Table 1 below refers to the patches being slightly larger than the patches observed at T1-10d at 0.50 to 0.75 miles, and not to the canal condition observed at T1-7d at 0.75 to 1.00 miles.

rats = conditions: oral; cited from earlier work

C=CC=O [Acrolein]
water solubility [1]: 238,000 mg/L
average acute toxicity (amphibians): very highly toxic
average acute toxicity (fish): highly toxic
average acute toxicity (mollusks): highly toxic
average acute toxicity (zooplankton): highly toxic
average acute toxicity (crustaceans): moderately toxic
average acute toxicity (insects): moderately toxic

[Ca+2].[O-]Cl.[O-]Cl [calcium hypochlorite]
Canal Description (visual observation of algae) (algae; T1-12 h: 12 hr. after Treatment 1, canal section 2.75 to 3.00 miles): Canal visually free of algae.
Canal Description (visual observation of algae) (algae; T1-12 h: 12 hr. after Treatment 1, canal section 3.25 to 3.50 miles): Canal is visually free of algae.
Canal Description (visual observation of algae) (algae; T1-12 h: 12 hr. after Treatment 1, canal section 4.75 to 5.00 miles): Small amounts of discolored/dying algae are adhering to the bottom of the canal.
Canal Description (visual observation of algae) (algae; T1-12 h: 12 hr. after Treatment 1, canal section 5.50 to 5.75 miles): Small amounts of discolored/dying algae are adhering to bottom of the canal.
Canal Description (visual observation of algae) (algae; T1-12 h: 12 hr. after Treatment 1, canal section 5.75 to 6.00 miles): Small amounts of discolored/dying algae are adhering to the bottom and sides of
Canal Description (visual observation of algae) (algae; T1-7 d: 7 days after Treatment 1, canal section 0.00 to 0.25 miles): Clear, visually free of algae.
Canal Description (visual observation of algae) (algae; T1-7 d: 7 days after Treatment 1, canal section 2.75 to 3.00 miles): Slight amount of algae is growing on the water surface of the canal.
Canal Description (visual observation of algae) (algae; T1-7 d: 7 days after Treatment 1, canal section 3.25 to 3.50 miles): Slight amount of algae is growing on the water surface and along the sides of
Canal Description (visual observation of algae) (algae; T1-7 d: 7 days after Treatment 1, canal section 5.25 to 5.50 miles): Slight amount of is algae is growing on the water surface and along the sides
Canal Description (visual observation of algae) (algae; T1-7 d: 7 days after Treatment 1, canal section 5.50 to 5.75 miles): Slight amount of algae is growing on the water surface and along the sides
Canal Description (visual observation of algae) (algae; T1-7 d: 7 days after Treatment 1, canal section 6.50 to 6.75 miles): Small amount of algae is growing on the water surface. Slight amount of algae
Canal Description (visual observation of algae) (algae; T1-7 d: 7 days after Treatment 1, canal section 6.75 to 7.00 miles): Small amount of algae is growing on the water surface. Small amount of algae
Canal Description (visual observation of algae) (algae; T1-10 d: 10 days after Treatment 1): Slight amount of algae is growing along the sides of the canal; also recorded: Slight amount of algae is growing on the water surface and along the sides of; also recorded: Small amount of algae is growing on the water surface and along the sides of; also recorded: Slightly larger patches of algae are growing on the water surface and along
Canal Description (visual observation of algae) (algae; T2-12 h: 12 hr. after Treatment 2): Canal visually free of algae; also recorded: Small amounts of discolored/dying algae are adhering to bottom of the canal; also recorded: Small amounts of discolored/dying algae are adhering to the bottom and sides of
Canal Description (visual observation of algae) (algae; T2-8 d: 8 days after Treatment 2, canal section 0.00 to 0.25 miles): Clear, visually free of algae.
Canal Description (visual observation of algae) (algae; T2-8 d: 8 days after Treatment 2, canal section 3.00 to 3.25 miles): Slight amount of algae is growing on the water surface of the canal.
Canal Description (visual observation of algae) (algae; T2-8 d: 8 days after Treatment 2, canal section 4.00 to 4.25 miles): Slight amount of algae is growing on the water surface and along the sides of
Canal Description (visual observation of algae) (algae; T2-8 d: 8 days after Treatment 2, canal section 5.50 to 5.75 miles): Slight amount of algae is growing on the water surface and along the sides
Canal Description (visual observation of algae) (algae; T2-8 d: 8 days after Treatment 2, canal section 6.50 to 6.75 miles): Small amount of algae is growing on the water surface. The amount of algae
Canal Description (visual observation of algae) (algae; T2-8 d: 8 days after Treatment 2, canal section 6.75 to 7.00 miles): Small amount of algae on the water surface. The amount of algae on the sides
Canal Description (visual observation of algae) (algae; T2-12 d: 12 days after Treatment 2): Very slight amount of algae is growing along the sides of the canal; also recorded: Slight amount of algae is growing along the sides of the canal; also recorded: Slight amount of algae is growing on the water surface and along the sides; also recorded: Slight amount of algae is growing on water surface and along the sides and; also recorded: Slightly more algae is growing on water surface and along the sides of the; also recorded: Slightly more algae is growing on the water surface and along the sides of
Canal Description (visual observation of algae) (algae; T2-b: just before Treatment 2, 10 days after Treatment 1): Slight amount of algae is growing on the water surface and along the sides of the; also recorded: Slightly larger patches of algae are growing on the water surface and along the sides; also recorded: Slight amount of algae is growing along the sides of the canal
Canal Description (visual observation of algae) (algae; T3-12 h: 12 hr. after Treatment 3, canal section 3.25 to 3.50 miles): Canal visually free of algae.
Canal Description (visual observation of algae) (algae; T3-12 h: 12 hr. after Treatment 3, canal section 5.00 to 5.25 miles): Small amounts of discolored/dying algae are present.
Canal Description (visual observation of algae) (algae; T3-12 h: 12 hr. after Treatment 3, canal section 5.75 to 6.00 miles): Small amounts of discolored/dying algae are adhering to the bottom and sides of
Canal Description (visual observation of algae) (algae; T3-b: just before Treatment 3, 12 days after Treatment 2): Slight amount of algae is growing along the sides of the canal; also recorded: Slightly more algae is growing on the water surface and along the sides of the canal; also recorded: More algae is growing on the water surface of the canal. Small amount of algae is; also recorded: Very slight amount of algae is growing along the sides of the canal; also recorded: More algae is growing on the water surface of the canal. More algae is growing up
LD50 (rats): 850 gm/100 kg
